The values that follow come from ChEMBL document CHEMBL1139936, “Annonaceous acetogenin mimics bearing a terminal lactam and their cytotoxicity against cancer cells” (Bioorg Med Chem Lett, 2007).

Data set [1] concerns B16. The data set can be described thus: Cytotoxicity against […] B16 cells after 48 hrs by MTT assay. The data set is classed as functional, cell-based. As to conditions: Mus musculus; for IC50: B16, 48 h. In general terms: Tetrazolium assays rely on reduction of a dye to a coloured formazan, in cell work by metabolically active cells.
Data set [2] can be described thus: (§1) Cytotoxicity against human BEL-7404 cells after 48 hrs by MTT assay. It counts as functional, cell-based. As to conditions: BEL-7404, 48 h.
In data set [3] the test system is SK-HEP1. Kind of data set: Cytotoxicity against human SKHep1 cells after 48 hrs by MTT assay. It counts as functional, cell-based. As to conditions: for IC50: SK-HEP1, 48 h.
The nature of data set [4]: Cytotoxicity against human Chang cells after 48 hrs by MTT assay. It counts as cell-based.
The subject of data set [5] is BEL-7404. The data set is described as §1. The data set is classed as functional, cell-based.

Activity calls are given as the source filed them. The calls are words filed in the database; no cut-off is given here.

For the compound `CCCCCCCCCC[C@H](O)COCCOC[C@@H](O)CCCCCCCCCCCCC1=CCN(C)C1=O`, the IC50 is 168 nM in data set [1], 168 nM in data set [2] and 104 nM in data set [3]. The Activity entry in data set [4] is reported as “Not Active”.

For the compound `CCCCCCCCCC[C@H](O)COCCOC[C@@H](O)CCCCCCCCCCCCC1=C[C@H](C)NC1=O`, the IC50 is 35 nM in data set [1] and 2200 nM in data set [2]. In addition, in data set [3], the outcome was inactive. Also, the Activity result in data set [4] is on record as “Not Active”.

Turning to `CCCCCCCCCC[C@H](O)COCCOC[C@@H](O)CCCCCCCCCCCCC1=CC(C)(C)N(C)C1=O`, the IC50 in data set [1] was determined as 478 nM; in data set [2], 845 nM; in data set [3], 583 nM. Also, the Activity result in data set [4] was “Not Active”.

With `CCCCCCCCCC[C@H](O)COCCOC[C@@H](O)CCCCCCCCCCCCC1=C[C@H](C)N(CCCNC(=O)CCCCCNC(=O)OC(C)(C)C)C1=O`, the outcome in data set [1] and in data set [3] was inactive. The compound further returned a concentration for half-maximal inhibition (IC50) in data set [2] of 3200 nM. For the same compound, in data set [4], the Activity result is “Not Active”.

Regarding `CCCCCCCCCC[C@H](O)COCCOC[C@@H](O)CCCCCCCCCCCCC1=C[C@H](C)N(C)C1=O`, the IC50 was found to be 13 nM in data set [1], 234 nM in data set [2] and 589 nM in data set [3]. Besides, the Activity entry in data set [4] was “Not Active”.

On to `CCCCCCCCCC[C@H](O)COCCOC[C@@H](O)CCCCCCCCCCCCC1=C[C@H](C)N(CCCNC(=O)CCCCCNC(=O)CCCCCNC(=O)OC(C)(C)C)C1=O`, for which the outcome in data set [1] and in data set [3] was inactive. In data set [2], this compound gave a 50% inhibitory concentration (IC50) of 2500 nM. Also, the Activity result in data set [4] is listed as “Not Active”.

For `CCCCCCCCCC[C@H](O)COCCOC[C@@H](O)CCCCCCCCCCCCC1=C[C@H](C)N(CCCNC(=O)C(F)(F)F)C1=O`, the IC50 in data set [1] came to 995 nM; in data set [2] it was 1350 nM. For the same compound, in data set [3], the outcome was inactive. Besides, the Activity result in data set [4] is recorded as “Not Active”.

Take `CCCCCCCCCC[C@H](O)COCCOC[C@@H](O)CCCCCCCCCCCCC1=C[C@H](C)N(CCCNC(=O)CCCCCNC(=S)Nc2ccc3c(c2)C(=O)OC32c3ccc(O)cc3Oc3cc(O)ccc32)C1=O`: the result in data set [1], in data set [5] and in data set [3] was inactive. Moreover, the Activity entry in data set [4] is given as “Not Active”.

On to `CCCCCCCCCC[C@H](O)COCCOC[C@@H](O)CCCCCCCCCCCCC1=C[C@H](C)OC1=O`, for which the IC50 in data set [1] amounted to 35 nM; in data set [2] it was 41 nM; in data set [3] it was 65 nM. For the same compound, in data set [4], the Activity entry is on record as “Not Active”.

The term IC50 denotes the point on the concentration scale where inhibition reaches its midpoint. Higher therefore signals lower potency.
